Experimental data from ChEMBL document CHEMBL1137392, “Conformational analysis of an alpha3beta1 integrin-binding peptide from thrombospondin-1: implications for antiangiogenic drug design” (J Med Chem, 2006).
pIC50: −log10 of the molar value. Where a SMILES comes first, the peptide text is derived from it. Bridges are numbered along the chain shown (N, C = ends).

System: MDA-MB-435
Assay: Inhibition of alpha3beta1 integrin-dependent adhesion of MDA-MB-435 cells
Assay type: functional, cell-based
Conditions: Homo sapiens

pIC50 | Compound
4.80 | CC(=O)N[C@H](Cc1ccccc1)C(=O)N[C@@H](C(=O)N[C@H](Cc1ccccc1)C(=O)N[C@H](CCCN=C(N)N)C(=O)N[C@@H](C(=O)N[C@H](CC(N)=O)C(=O)N[C@H](CCC(N)=O)C(=O)N[C@H](CC(C)C)C(=O)N[C@@H](C(=O)NCC(=O)N[C@H](CCC(N)=O)C(=O)N[C@H](Cc1ccccc1)C(N)=O)C(C)C)C(C)C)C(C)C
< 3.52 | CC(C)[C@@H]1NC(=O)[C@H](CC(N)=O)NC(=O)[C@@H](N)CSSC[C@@H](C(=O)O)NC(=O)[C@H](CCCN=C(N)N)NC1=O (H-CNVRC-OH; disulfide 1-5)
4.89 | H-FQGVLQDVRFVF-OH
< 3.52 | H-FQGVLQNARFVF-OH

More lines, now with the values behind:

Compound | pIC50
NC(=O)C[C@@H]1NC(=O)[C@@H](N)CSSC[C@@H](C(=O)O)NC(=O)[C@H](CCCN=C(N)N)NC(=O)CNC1=O (H-CNGRC-OH; disulfide 1-5) | < 3.52
H-FQGVLQAVRFVF-OH | 3.52
H-FQGVLQNLRFVF-OH | 4.77
H-FQGVLQNVAFVF-OH | < 3.52
H-FQGVLQQVRFVF-OH | 4.57
